According to the supplement of paper PMC10307832:

Tests used:
Experiment in all cases: relative viability (nuclei count vs DMSO), 5 days (fraction); higher = more cells survive
[1] = compound: CC1=CC=C(C=C1)C(=O)CN2C3=C(CCCC3)SC2=N [Pifithrin_alpha] + COc1cc2c(Oc3ccc(NC(=O)C4(C(=O)Nc5ccc(F)cc5)CC4)cc3F)ccnc2cc1OCCCN1CCOCC1 [Foretinib] (partner 0.25 µM)
In short: (§1)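 Nuclei were stained with Hoechst during a one-step fixation (final 0.05% Triton X-100, 1% formaldehyde, 1 ug/ml Hoechst) carried out 5 days after dosing, then counted on 4× images. The cells, lung cancer lines in 1536-well plates, had been dosed by pin tool the day after seeding with one drug alone or a fixed anchor-drug dose plus five library-drug doses (not always all listed) in √10 steps. Relative viability is the nuclei count in treated wells divided by that in vehicle wells, and each value is the median of duplicate plates.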

[2] = compound: CC1=CC=C(C=C1)C(=O)CN2C3=C(CCCC3)SC2=N [Pifithrin_alpha] + CS(=O)(=O)CCNCc1ccc(-c2ccc3ncnc(Nc4ccc(OCc5cccc(F)c5)c(Cl)c4)c3c2)o1 [Lapatinib] (partner 2 µM)
In short: as §1

Axitinib + Tozasertib = compound: CNC(=O)c1ccccc1Sc1ccc2c(/C=C/c3ccccn3)n[nH]c2c1 [Axitinib] + Cc1cc(Nc2cc(N3CCN(C)CC3)nc(Sc3ccc(NC(=O)C4CC4)cc3)n2)n[nH]1 [Tozasertib] (partner 0.1 µM)
In short: as §1

Axitinib + Decitabine = compound: CNC(=O)c1ccccc1Sc1ccc2c(/C=C/c3ccccn3)n[nH]c2c1 [Axitinib] + Nc1ncn([C@H]2C[C@H](O)[C@@H](CO)O2)c(=O)n1 [Decitabine] (partner 2 µM)
In short: as §1

| Cell Line | relative viability ([1]; first compound 1 µM) | relative viability ([1]; first compound 3.162 µM) | relative viability ([1]; first compound 10 µM) | relative viability ([1]; first compound 31.62 µM) | relative viability ([1]; first compound 100 µM) | relative viability ([2]; first compound 1 µM) | relative viability ([2]; first compound 3.162 µM) | relative viability ([2]; first compound 10 µM) | relative viability ([2]; first compound 31.62 µM) | relative viability ([2]; first compound 100 µM) | relative viability (Axitinib + Tozasertib; first compound 0.005 µM) | relative viability (Axitinib + Tozasertib; first compound 0.01581 µM) | relative viability (Axitinib + Tozasertib; first compound 0.05 µM) | relative viability (Axitinib + Tozasertib; first compound 0.1581 µM) | relative viability (Axitinib + Tozasertib; first compound 0.5 µM) | relative viability (Axitinib + Decitabine; first compound 0.005 µM) | relative viability (Axitinib + Decitabine; first compound 0.01581 µM) | relative viability (Axitinib + Decitabine; first compound 0.05 µM) | relative viability (Axitinib + Decitabine; first compound 0.1581 µM) | relative viability (Axitinib + Decitabine; first compound 0.5 µM) |
| --- | --- | --- | --- | --- | --- | --- | --- | --- | --- | --- | --- | --- | --- | --- | --- | --- | --- | --- | --- | --- |
| NCI-H1666 | 0.969 | 0.933 | 0.867 | 0.781 | 0.763 | 0.503 | 0.405 | 0.286 | 0.337 | 0.365 | 0.684 | 0.638 | 0.643 | 0.7 | 0.706 | 0.751 | 0.747 | 0.731 | 0.73 | 0.75 |
| NCI-H1734 | 0.868 | 0.825 | 0.814 | 0.763 | 0.793 | 1.05 | 1.08 | 0.953 | 0.749 | 1.07 | 0.278 | 0.268 | 0.274 | 0.241 | 0.25 | 0.518 | 0.492 | 0.524 | 0.491 | 0.521 |
| NCI-H1755 | 0.819 | 0.833 | 0.849 | 0.674 | 0.862 | 0.96 | 1.01 | 0.966 | 0.812 | 1.23 | 0.608 | 0.541 | 0.605 | 0.632 | 0.617 | 0.759 | 0.715 | 0.704 | 0.726 | 0.709 |
| NCI-H1793 |  | 0.539 | 0.61 | 0.642 | 0.483 | 0.692 | 0.716 | 0.505 | 0.867 | 0.739 | 0.311 | 0.311 | 0.46 | 0.346 | 0.351 | 0.595 | 0.55 | 0.478 | 0.413 | 0.559 |
| NCI-H1915 | 1.09 | 1.15 |  |  | 1.12 | 0.923 | 1.15 | 0.883 |  | 1.13 | 0.458 | 0.491 | 0.443 | 0.464 | 0.655 | 0.249 | 0.254 | 0.239 | 0.267 | 0.262 |
| NCI-H1944 | 0.816 | 0.713 | 0.732 | 0.47 | 0.677 | 0.755 | 0.67 | 0.517 |  | 0.598 | 0.238 | 0.258 | 0.264 | 0.263 | 0.297 | 0.47 | 0.428 | 0.452 | 0.397 | 0.455 |
| NCI-H1975 | 0.869 | 0.8 | 0.572 | 0.55 | 0.568 | 0.895 | 0.544 | 0.655 | 0.489 | 0.761 | 0.79 | 0.819 | 0.719 | 0.875 | 0.867 | 0.411 | 0.407 | 0.389 | 0.388 | 0.395 |
| NCI-H1993 | 0.721 | 0.566 | 0.694 | 0.661 | 0.674 |  | 0.761 | 0.73 | 0.764 | 0.777 | 0.617 | 0.59 | 0.592 | 0.607 | 0.641 | 0.709 | 0.634 | 0.609 | 0.631 | 0.668 |
| NCI-H2009 | 1.19 | 1.26 | 1.18 | 0.829 | 1.05 | 0.368 | 0.906 | 0.847 | 0.457 | 0.813 | 0.76 | 0.815 | 0.708 | 0.786 | 1.08 | 0.408 | 0.339 | 0.409 | 0.364 | 0.346 |
| NCI-H2023 | 0.969 |  | 0.578 |  | 0.523 | 0.274 | 0.737 | 0.638 | 0.291 | 0.589 | 0.368 | 0.395 | 0.38 | 0.483 | 0.604 | 0.209 | 0.243 | 0.238 | 0.219 | 0.226 |
| NCI-H2085 |  | 1.11 | 1.07 | 0.78 | 0.844 | 0.626 | 0.69 | 0.691 | 0.667 | 0.661 | 0.652 | 0.771 | 0.807 | 0.827 | 0.913 | 0.578 | 0.54 | 0.614 | 0.551 | 0.561 |
| NCI-H2087 | 1.1 | 1.21 | 1.07 |  | 1.03 | 0.991 | 0.942 | 0.913 | 0.655 | 0.972 | 0.247 | 0.294 | 0.282 | 0.321 | 0.357 | 0.289 | 0.254 | 0.22 | 0.186 | 0.293 |
| NCI-H2126 |  | 0.988 | 0.946 | 0.96 | 1.1 | 0.614 | 0.643 | 0.68 | 0.536 | 0.658 | 0.919 | 0.859 | 0.833 | 0.886 | 1 | 0.617 | 0.595 | 0.571 | 0.583 | 0.562 |
| NCI-H2170 | 0.985 | 1.02 | 0.988 | 0.931 | 0.952 | 0.263 | 0.274 | 0.287 | 0.266 | 0.263 | 0.72 | 0.63 | 0.768 | 0.774 | 0.838 | 0.483 | 0.439 | 0.411 | 0.48 | 0.488 |
| NCI-H2347 | 0.684 |  | 1.05 | 0.689 | 0.804 | 0.811 | 0.911 | 0.902 | 0.705 | 0.911 | 0.589 | 0.524 | 0.609 | 0.498 | 0.675 | 0.699 | 0.543 | 0.585 | 0.578 | 0.686 |
| NCI-H2405 | 1.01 | 0.974 | 0.907 | 0.884 | 0.784 |  | 0.975 | 0.991 | 0.882 | 0.975 | 0.773 | 0.795 | 0.853 | 0.785 | 1 | 0.767 | 0.718 | 0.777 | 0.707 | 0.811 |
| NCI-H3122 | 0.932 | 0.927 | 0.854 |  | 0.891 | 1.11 | 1.04 | 1.05 | 0.837 | 1.01 | 0.38 | 0.426 | 0.346 | 0.415 | 0.566 | 0.42 | 0.445 | 0.448 | 0.451 | 0.51 |
